ChEMBL document CHEMBL1201862, “PubChem BioAssay data set” (2004)
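These data come from cells grown in 96-well plates and exposed to compound for 48 hours at five concentrations. GI50 marks 50% less growth.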 Active and inactive are the calls of the source. Rule as the data show it: active = GI50 up to about 1.1 µM and inactive = higher.

Experiments:
Test in all cases: NCI anticancer screen, dose series, 48 h
[1] = test system: BT-549
[2] = test system: NCI/ADR-RES
[3] = test system: HOP-62
[4] = test system: MDA-MB-231
[5] = test system: HOP-92
[6] = test system: Malme-3M
[7] = test system: T47D
[8] = test system: UACC-62
[9] = test system: UO-31
[10] = test system: NCI-H23
[11] = test system: EKVX
[12] = test system: RPMI-8226
[13] = test system: PC-3
[14] = test system: SK-MEL-2
[15] = test system: OVCAR-5
[16] = test system: 786-0
[17] = test system: OVCAR-4
[18] = test system: NCI-H522
[19] = test system: NCI-H226
[20] = test system: A498
[21] = test system: KM12
[22] = test system: NCI-H460
[23] = test system: SR
[24] = test system: COLO 205
[25] = test system: MCF7
[26] = test system: MDA-N
[27] = test system: OVCAR-8
[28] = test system: UACC-257
[29] = test system: SNB-19
[30] = test system: A549
[31] = test system: LOX IMVI
[32] = test system: SNB-75
[33] = test system: HCT-116
[34] = test system: CAKI-1
[35] = test system: DU-145
[36] = test system: SK-MEL-5
[37] = test system: SF-295
[38] = test system: IGROV-1
[39] = test system: CCRF-CEM
[40] = test system: SW-620
[41] = test system: HCT-15
[42] = test system: TK-10
[43] = test system: K562
[44] = test system: SK-OV-3
[45] = test system: Hs-578T
[46] = test system: SK-MEL-28
[47] = test system: MDA-MB-435
[48] = test system: MOLT-4
[49] = test system: ACHN
[50] = test system: SN12C
[51] = test system: OVCAR-3
[52] = test system: M14
[53] = test system: SF-268
[54] = test system: HT-29
[55] = test system: U-251
[56] = test system: RXF 393
[57] = test system: SF-539
[58] = test system: HL-60

## CN(C(=O)Nc1ccc(Cl)c(Cl)c1)C1CCCC[C@@H]1N1CCCC1 (some centres undefined)
[1]
  GI50: 22.4 µM (inactive)
[2]
  GI50: 72.4 µM (inactive)
[3]
  GI50: > 100 µM (inactive)
[4]
  GI50: 47.9 µM (inactive)
[5]
  GI50: 34.4 µM (inactive)
[6]
  GI50: 22 µM (inactive)
[7]
  GI50: 39.6 µM (inactive)
[8]
  GI50: 22.9 µM (inactive)
[9]
  GI50: 19.3 µM (inactive)
[10]
  GI50: > 100 µM (inactive)
[11]
  GI50: 47.5 µM (inactive)
[12]
  GI50: 24.7 µM (inactive)
[13]
  GI50: 41.4 µM (inactive)
[14]
  GI50: 38.3 µM (inactive)
[15]
  GI50: 32.4 µM (inactive)
[16]
  GI50: 48.6 µM (inactive)
[17]
  GI50: 41.9 µM (inactive)
[18]
  GI50: 41.7 µM (inactive)
[19]
  GI50: 0.092 µM (active)
[20]
  GI50: 24.2 µM (inactive)
[21]
  GI50: 39.5 µM (inactive)
[22]
  GI50: 36.6 µM (inactive)
[23]
  GI50: 21 µM (inactive)
[24]
  GI50: 18.1 µM (inactive)
[25]
  GI50: 33.6 µM (inactive)
[26]
  GI50: 34 µM (inactive)
[27]
  GI50: 79.3 µM (inactive)
[28]
  GI50: 18.8 µM (inactive)
[29]
  GI50: 66.7 µM (inactive)
[30]
  GI50: 61.2 µM (inactive)
[31]
  GI50: 30.3 µM (inactive)
[32]
  GI50: 40.2 µM (inactive)
[33]
  GI50: 51.8 µM (inactive)
[34]
  GI50: 70.6 µM (inactive)
[35]
  GI50: 58.6 µM (inactive)
[36]
  GI50: 16.3 µM (inactive)
[37]
  GI50: 84.7 µM (inactive)
[38]
  GI50: 41.3 µM (inactive)
[39]
  GI50: 30.5 µM (inactive)
[40]
  GI50: 63.7 µM (inactive)
[41]
  GI50: 41.4 µM
[42]
  GI50: 33.3 µM (inactive)
[43]
  GI50: 24.2 µM (inactive)
[44]
  GI50: > 100 µM (inactive)
[45]
  GI50: 33.7 µM (inactive)
[46]
  GI50: 21.7 µM (inactive)
[47]
  GI50: 33 µM (inactive)
[48]
  GI50: 19.6 µM (inactive)
[49]
  GI50: 52 µM (inactive)
[50]
  GI50: > 100 µM (inactive)
[51]
  GI50: 76.6 µM (inactive)
[52]
  GI50: 19.1 µM (inactive)
[53]
  GI50: 31.6 µM (inactive)
[54]
  GI50: 29.4 µM (inactive)
[55]
  GI50: 53.7 µM (inactive)
[56]
  GI50: 37.7 µM (inactive)

## Cc1c(C=C(C#N)C#N)c(=O)n(C)c(=O)n1C
[1]
  GI50: > 100 µM (inactive)
[2]
  GI50: > 100 µM (inactive)
[3]
  GI50: > 100 µM (inactive)
[4]
  GI50: > 100 µM (inactive)
[5]
  GI50: > 100 µM (inactive)
[6]
  GI50: > 100 µM (inactive)
[7]
  GI50: > 100 µM (inactive)
[8]
  GI50: > 100 µM (inactive)
[9]
  GI50: > 100 µM (inactive)
[10]
  GI50: > 100 µM (inactive)
[11]
  GI50: 81.5 µM (inactive)
[12]
  GI50: 72.8 µM (inactive)
[13]
  GI50: > 100 µM (inactive)
[14]
  GI50: > 100 µM (inactive)
[15]
  GI50: > 100 µM (inactive)
[16]
  GI50: > 100 µM (inactive)
[17]
  GI50: > 100 µM (inactive)
[18]
  GI50: 31.4 µM (inactive)
[19]
  GI50: > 100 µM (inactive)
[20]
  GI50: > 100 µM (inactive)
[21]
  GI50: > 100 µM (inactive)
[22]
  GI50: > 100 µM (inactive)
[23]
  GI50: 32.9 µM (inactive)
[24]
  GI50: > 100 µM (inactive)
[25]
  GI50: > 100 µM (inactive)
[26]
  GI50: > 100 µM (inactive)
[27]
  GI50: > 100 µM (inactive)
[28]
  GI50: > 100 µM (inactive)
[29]
  GI50: > 100 µM (inactive)
[30]
  GI50: > 100 µM (inactive)
[31]
  GI50: > 100 µM (inactive)
[32]
  GI50: > 100 µM (inactive)
[33]
  GI50: > 100 µM (inactive)
[57]
  GI50: > 100 µM (inactive)
[34]
  GI50: > 100 µM (inactive)
[35]
  GI50: > 100 µM (inactive)
[36]
  GI50: > 100 µM (inactive)
[37]
  GI50: > 100 µM (inactive)
[38]
  GI50: > 100 µM (inactive)
[39]
  GI50: 19.6 µM (inactive)
[40]
  GI50: > 100 µM (inactive)
[41]
  GI50: > 100 µM
[42]
  GI50: > 100 µM (inactive)
[43]
  GI50: > 100 µM (inactive)
[44]
  GI50: > 100 µM (inactive)
[45]
  GI50: > 100 µM (inactive)
[46]
  GI50: > 100 µM (inactive)
[47]
  GI50: > 100 µM (inactive)
[48]
  GI50: 95.3 µM (inactive)
[49]
  GI50: > 100 µM (inactive)
[50]
  GI50: > 100 µM (inactive)
[51]
  GI50: > 100 µM (inactive)
[52]
  GI50: > 100 µM (inactive)
[53]
  GI50: > 100 µM (inactive)
[54]
  GI50: > 100 µM (inactive)
[55]
  GI50: > 100 µM (inactive)
[58]
  GI50: > 100 µM (inactive)
[56]
  GI50: > 100 µM (inactive)
